From the supplement of paper PMC13380429

Key:
Details in all cases: 72 h
HepG2 [1] = assay: cell viability relative to DMSO; higher = less toxic
Calu-3 [2] = assay: as above
Vero E6 [3] = assay: as above
U2OS [4] = assay: as above
Caco-2 [5] = assay: as above
HepG2 [6] = assay: relative viability EC50 (midpoint between 100% and the lowest measured viability); higher = less toxic
Calu-3 [7] = assay: as above
Vero E6 [8] = assay: as above
U2OS [9] = assay: as above
Caco-2 [10] = assay: as above
HepG2 [11] = assay: drug sensitivity score (DSS) for viability; higher = more toxic; extreme values may be limits of the assay
Calu-3 [12] = assay: as above
Vero E6 [13] = assay: as above
U2OS [14] = assay: as above
Caco-2 [15] = assay: as above

CN1C[C@@H](NS(=O)(=O)N(C)C)C[C@@H]2c3cccc4c3c(cn4C)C[C@H]21 [mesulergine]
cell viability (HepG2 [1]; 1 nM): 101%
cell viability (HepG2 [1]; 10 nM): 99.3%
cell viability (HepG2 [1]; 100 nM): 106%
cell viability (HepG2 [1]; 1000 nM): 108%
cell viability (HepG2 [1]; 10000 nM): 100%
cell viability (Calu-3 [2]; 1 nM): 111%
cell viability (Calu-3 [2]; 10 nM): 106%
cell viability (Calu-3 [2]; 100 nM): 107%
cell viability (Calu-3 [2]; 1000 nM): 96.1%
cell viability (Calu-3 [2]; 10000 nM): 102%
cell viability (Vero E6 [3]; 1 nM): 97.5%
cell viability (Vero E6 [3]; 10 nM): 104%
cell viability (Vero E6 [3]; 100 nM): 94.1%
cell viability (Vero E6 [3]; 1000 nM): 97.9%
cell viability (Vero E6 [3]; 10000 nM): 94.9%
cell viability (U2OS [4]; 1 nM): 103%
cell viability (U2OS [4]; 10 nM): 100%
cell viability (U2OS [4]; 100 nM): 101%
cell viability (U2OS [4]; 1000 nM): 101%
cell viability (U2OS [4]; 10000 nM): 99.9%
cell viability (Caco-2 [5]; 1 nM): 108%
cell viability (Caco-2 [5]; 10 nM): 102%
cell viability (Caco-2 [5]; 100 nM): 105%
cell viability (Caco-2 [5]; 1000 nM): 98.9%
cell viability (Caco-2 [5]; 10000 nM): 108%
relative viability EC50 (HepG2 [6]): > 10 µM
relative viability EC50 (Calu-3 [7]): > 10 µM
relative viability EC50 (Vero E6 [8]): > 10 µM
relative viability EC50 (U2OS [9]): > 10 µM
relative viability EC50 (Caco-2 [10]): > 10 µM
drug sensitivity score (HepG2 [11]): 0
drug sensitivity score (Calu-3 [12]): 0
drug sensitivity score (Vero E6 [13]): 0
drug sensitivity score (U2OS [14]): 0
drug sensitivity score (Caco-2 [15]): 0

Cc1cn2c(N)c(Cl)cc(C(=O)NCC3CCN(CC(C)C)CC3)c2n1
cell viability (HepG2 [1]; 1 nM): 107%
cell viability (HepG2 [1]; 10 nM): 99.6%
cell viability (HepG2 [1]; 100 nM): 102%
cell viability (HepG2 [1]; 1000 nM): 88.1%
cell viability (HepG2 [1]; 10000 nM): 97.1%
cell viability (Calu-3 [2]; 1 nM): 102%
cell viability (Calu-3 [2]; 10 nM): 96.5%
cell viability (Calu-3 [2]; 100 nM): 99.9%
cell viability (Calu-3 [2]; 1000 nM): 93.4%
cell viability (Calu-3 [2]; 10000 nM): 99.9%
cell viability (Vero E6 [3]; 1 nM): 88%
cell viability (Vero E6 [3]; 10 nM): 101%
cell viability (Vero E6 [3]; 100 nM): 90.2%
cell viability (Vero E6 [3]; 1000 nM): 96.5%
cell viability (Vero E6 [3]; 10000 nM): 99.2%
cell viability (U2OS [4]; 1 nM): 101%
cell viability (U2OS [4]; 10 nM): 95.1%
cell viability (U2OS [4]; 100 nM): 102%
cell viability (U2OS [4]; 1000 nM): 97.6%
cell viability (U2OS [4]; 10000 nM): 95.4%
cell viability (Caco-2 [5]; 1 nM): 103%
cell viability (Caco-2 [5]; 10 nM): 83.1%
cell viability (Caco-2 [5]; 100 nM): 103%
cell viability (Caco-2 [5]; 1000 nM): 99.7%
cell viability (Caco-2 [5]; 10000 nM): 107%
relative viability EC50 (HepG2 [6]): > 10 µM
relative viability EC50 (Calu-3 [7]): > 10 µM
relative viability EC50 (Vero E6 [8]): > 10 µM
relative viability EC50 (U2OS [9]): > 10 µM
relative viability EC50 (Caco-2 [10]): > 10 µM
drug sensitivity score (HepG2 [11]): 0.5
drug sensitivity score (Calu-3 [12]): 0
drug sensitivity score (Vero E6 [13]): 0
drug sensitivity score (U2OS [14]): 0
drug sensitivity score (Caco-2 [15]): 0

Cc1cc(C(=O)N2Cc3cnn(C)c3Nc3ccccc32)ccc1CNC(=O)N1CCC[C@H]1C(=S)N1CCCN(C)CC1 [TC-OT-39]
cell viability (HepG2 [1]; 1 nM): 100%
cell viability (HepG2 [1]; 10 nM): 90.3%
cell viability (HepG2 [1]; 100 nM): 97%
cell viability (HepG2 [1]; 1000 nM): 104%
cell viability (HepG2 [1]; 10000 nM): 96.8%
cell viability (Calu-3 [2]; 1 nM): 98.1%
cell viability (Calu-3 [2]; 10 nM): 84.4%
cell viability (Calu-3 [2]; 100 nM): 105%
cell viability (Calu-3 [2]; 1000 nM): 97.9%
cell viability (Calu-3 [2]; 10000 nM): 90%
cell viability (Vero E6 [3]; 1 nM): 95.3%
cell viability (Vero E6 [3]; 10 nM): 98.6%
cell viability (Vero E6 [3]; 100 nM): 94.4%
cell viability (Vero E6 [3]; 1000 nM): 97.5%
cell viability (Vero E6 [3]; 10000 nM): 102%
cell viability (U2OS [4]; 1 nM): 97.7%
cell viability (U2OS [4]; 10 nM): 100%
cell viability (U2OS [4]; 100 nM): 106%
cell viability (U2OS [4]; 1000 nM): 98%
cell viability (U2OS [4]; 10000 nM): 101%
cell viability (Caco-2 [5]; 1 nM): 99.8%
cell viability (Caco-2 [5]; 10 nM): 92.2%
cell viability (Caco-2 [5]; 100 nM): 98.7%
cell viability (Caco-2 [5]; 1000 nM): 106%
cell viability (Caco-2 [5]; 10000 nM): 100%
relative viability EC50 (HepG2 [6]): > 10 µM
relative viability EC50 (Calu-3 [7]): > 10 µM
relative viability EC50 (Vero E6 [8]): > 10 µM
relative viability EC50 (U2OS [9]): > 10 µM
relative viability EC50 (Caco-2 [10]): > 10 µM
drug sensitivity score (HepG2 [11]): 0
drug sensitivity score (Calu-3 [12]): 0
drug sensitivity score (Vero E6 [13]): 0
drug sensitivity score (U2OS [14]): 0
drug sensitivity score (Caco-2 [15]): 0

CN(C)CCCCSC(=N)N
cell viability (HepG2 [1]; 1 nM): 104%
cell viability (HepG2 [1]; 10 nM): 103%
cell viability (HepG2 [1]; 100 nM): 90.7%
cell viability (HepG2 [1]; 1000 nM): 93%
cell viability (HepG2 [1]; 10000 nM): 95.1%
cell viability (Calu-3 [2]; 1 nM): 90.6%
cell viability (Calu-3 [2]; 10 nM): 89.5%
cell viability (Calu-3 [2]; 100 nM): 89%
cell viability (Calu-3 [2]; 1000 nM): 91.8%
cell viability (Calu-3 [2]; 10000 nM): 90.1%
cell viability (Vero E6 [3]; 1 nM): 104%
cell viability (Vero E6 [3]; 10 nM): 108%
cell viability (Vero E6 [3]; 100 nM): 101%
cell viability (Vero E6 [3]; 1000 nM): 105%
cell viability (Vero E6 [3]; 10000 nM): 99.3%
cell viability (U2OS [4]; 1 nM): 94%
cell viability (U2OS [4]; 10 nM): 92.8%
cell viability (U2OS [4]; 100 nM): 100%
cell viability (U2OS [4]; 1000 nM): 94.7%
cell viability (U2OS [4]; 10000 nM): 97.8%
cell viability (Caco-2 [5]; 1 nM): 104%
cell viability (Caco-2 [5]; 10 nM): 111%
cell viability (Caco-2 [5]; 100 nM): 99.6%
cell viability (Caco-2 [5]; 1000 nM): 105%
cell viability (Caco-2 [5]; 10000 nM): 97.9%
relative viability EC50 (HepG2 [6]): > 10 µM
relative viability EC50 (Calu-3 [7]): > 10 µM
relative viability EC50 (Vero E6 [8]): > 10 µM
relative viability EC50 (U2OS [9]): > 10 µM
relative viability EC50 (Caco-2 [10]): > 10 µM
drug sensitivity score (HepG2 [11]): 0
drug sensitivity score (Calu-3 [12]): 0.8
drug sensitivity score (Vero E6 [13]): 0
drug sensitivity score (U2OS [14]): 0
drug sensitivity score (Caco-2 [15]): 0

O=C(O)COc1nn(Cc2ccccc2)c2ccccc12 [bendazac]
cell viability (HepG2 [1]; 1 nM): 91.7%
cell viability (HepG2 [1]; 10 nM): 104%
cell viability (HepG2 [1]; 100 nM): 97.3%
cell viability (HepG2 [1]; 1000 nM): 94.1%
cell viability (HepG2 [1]; 10000 nM): 98.7%
cell viability (Calu-3 [2]; 1 nM): 86.6%
cell viability (Calu-3 [2]; 10 nM): 83.3%
cell viability (Calu-3 [2]; 100 nM): 104%
cell viability (Calu-3 [2]; 1000 nM): 103%
cell viability (Calu-3 [2]; 10000 nM): 104%
cell viability (Vero E6 [3]; 1 nM): 101%
cell viability (Vero E6 [3]; 10 nM): 101%
cell viability (Vero E6 [3]; 100 nM): 99%
cell viability (Vero E6 [3]; 1000 nM): 103%
cell viability (Vero E6 [3]; 10000 nM): 98.8%
cell viability (U2OS [4]; 1 nM): 91.7%
cell viability (U2OS [4]; 10 nM): 95.3%
cell viability (U2OS [4]; 100 nM): 98.9%
cell viability (U2OS [4]; 1000 nM): 92.3%
cell viability (U2OS [4]; 10000 nM): 96.1%
cell viability (Caco-2 [5]; 1 nM): 109%
cell viability (Caco-2 [5]; 10 nM): 96.3%
cell viability (Caco-2 [5]; 100 nM): 103%
cell viability (Caco-2 [5]; 1000 nM): 97.6%
cell viability (Caco-2 [5]; 10000 nM): 102%
relative viability EC50 (HepG2 [6]): > 10 µM
relative viability EC50 (Calu-3 [7]): > 10 µM
relative viability EC50 (Vero E6 [8]): > 10 µM
relative viability EC50 (U2OS [9]): > 10 µM
relative viability EC50 (Caco-2 [10]): > 10 µM
drug sensitivity score (HepG2 [11]): 0
drug sensitivity score (Calu-3 [12]): 0
drug sensitivity score (Vero E6 [13]): 0
drug sensitivity score (U2OS [14]): 0
drug sensitivity score (Caco-2 [15]): 0

O=C(O)c1ccc2c(c1)nc(Nc1cccc(Cl)c1)c1ccncc12 [CX-4945]
cell viability (HepG2 [1]; 1 nM): 106%
cell viability (HepG2 [1]; 10 nM): 109%
cell viability (HepG2 [1]; 100 nM): 92%
cell viability (HepG2 [1]; 1000 nM): 102%
cell viability (HepG2 [1]; 10000 nM): 77%
cell viability (Calu-3 [2]; 1 nM): 111%
cell viability (Calu-3 [2]; 10 nM): 103%
cell viability (Calu-3 [2]; 100 nM): 111%
cell viability (Calu-3 [2]; 1000 nM): 101%
cell viability (Calu-3 [2]; 10000 nM): 83.2%
cell viability (Vero E6 [3]; 1 nM): 101%
cell viability (Vero E6 [3]; 10 nM): 98.4%
cell viability (Vero E6 [3]; 100 nM): 101%
cell viability (Vero E6 [3]; 1000 nM): 95.1%
cell viability (Vero E6 [3]; 10000 nM): 86.5%
cell viability (U2OS [4]; 1 nM): 102%
cell viability (U2OS [4]; 10 nM): 101%
cell viability (U2OS [4]; 100 nM): 101%
cell viability (U2OS [4]; 1000 nM): 88.4%
cell viability (U2OS [4]; 10000 nM): 84.8%
cell viability (Caco-2 [5]; 1 nM): 98.7%
cell viability (Caco-2 [5]; 10 nM): 95.2%
cell viability (Caco-2 [5]; 100 nM): 92%
cell viability (Caco-2 [5]; 1000 nM): 95.6%
cell viability (Caco-2 [5]; 10000 nM): 97.7%
relative viability EC50 (HepG2 [6]): > 10 µM
relative viability EC50 (Calu-3 [7]): > 10 µM
relative viability EC50 (Vero E6 [8]): > 10 µM
relative viability EC50 (U2OS [9]): > 10 µM
relative viability EC50 (Caco-2 [10]): > 10 µM
drug sensitivity score (HepG2 [11]): 0.7
drug sensitivity score (Calu-3 [12]): 0.3
drug sensitivity score (Vero E6 [13]): 0.4
drug sensitivity score (U2OS [14]): 1.1
drug sensitivity score (Caco-2 [15]): 0
